Measurements from patent publication US11813252B2, “Treatment for Parkinson's disease” (SUN PHARMA ADVANCED RESEARCH COMPANY LTD., priority 2016, dated 2023).

Legend:
[1] = Brain/plasma pharmacokinetic study in mice; type: in vivo, C57BL6 mice
Method: At 1, 4 & 8 hour time points post treatment, mice were anesthetized with isoflurane and a 0.4 mL of blood was withdrawn from retro-orbital plexus into eppendorf tubes containing 8 μL sodium heparin as an anticoagulant (100 IU/ml) and transferred to ice containers. Blood samples were centrifuged immediately for 7 min at 8500 rpm, 4° C. Plasma was separated in the pre-labeled eppendorf tubes and stored at −70° C. till further analysis. Immediately thereafter, the mice were sacrificed, whole brain was removed and rinsed with ice-cold phosphate buffered saline (PBS) to remove extraneous blood and blot-dried. Brain tissue samples were weighed and homogenized in 1:2 volume of PBS using a tissue homogenizer and stored in labeled vials at −70° C. until further analysis. Concentrations of the compound of Formula I.a in brain and plasma were determined using the LC-MS technique.

[2] = tested on: neurodegeneration induced by MPTP (TH-positive neurons); experiment: MPTP animal model of Parkinson's disease, TH immunohistochemistry; type: in vivo, C57BL/6 mice; settings: oral, 10 or 30 mg/kg once a day, 6 days before, on the day of and 7 days after MPTP; substantia nigra pars compacta
hERG K+ channel = target: T1, hERG K+ channel (Homo sapiens, UniProt Q12809); experiment: hERG K+ channel patch clamp in HEK293 cells; type: cell-based; settings: for Inhibition of hERG current (in words): at the concentration tested
T1 construct: expressed in transfected cells
T1 sequence (Q12809 whole entry): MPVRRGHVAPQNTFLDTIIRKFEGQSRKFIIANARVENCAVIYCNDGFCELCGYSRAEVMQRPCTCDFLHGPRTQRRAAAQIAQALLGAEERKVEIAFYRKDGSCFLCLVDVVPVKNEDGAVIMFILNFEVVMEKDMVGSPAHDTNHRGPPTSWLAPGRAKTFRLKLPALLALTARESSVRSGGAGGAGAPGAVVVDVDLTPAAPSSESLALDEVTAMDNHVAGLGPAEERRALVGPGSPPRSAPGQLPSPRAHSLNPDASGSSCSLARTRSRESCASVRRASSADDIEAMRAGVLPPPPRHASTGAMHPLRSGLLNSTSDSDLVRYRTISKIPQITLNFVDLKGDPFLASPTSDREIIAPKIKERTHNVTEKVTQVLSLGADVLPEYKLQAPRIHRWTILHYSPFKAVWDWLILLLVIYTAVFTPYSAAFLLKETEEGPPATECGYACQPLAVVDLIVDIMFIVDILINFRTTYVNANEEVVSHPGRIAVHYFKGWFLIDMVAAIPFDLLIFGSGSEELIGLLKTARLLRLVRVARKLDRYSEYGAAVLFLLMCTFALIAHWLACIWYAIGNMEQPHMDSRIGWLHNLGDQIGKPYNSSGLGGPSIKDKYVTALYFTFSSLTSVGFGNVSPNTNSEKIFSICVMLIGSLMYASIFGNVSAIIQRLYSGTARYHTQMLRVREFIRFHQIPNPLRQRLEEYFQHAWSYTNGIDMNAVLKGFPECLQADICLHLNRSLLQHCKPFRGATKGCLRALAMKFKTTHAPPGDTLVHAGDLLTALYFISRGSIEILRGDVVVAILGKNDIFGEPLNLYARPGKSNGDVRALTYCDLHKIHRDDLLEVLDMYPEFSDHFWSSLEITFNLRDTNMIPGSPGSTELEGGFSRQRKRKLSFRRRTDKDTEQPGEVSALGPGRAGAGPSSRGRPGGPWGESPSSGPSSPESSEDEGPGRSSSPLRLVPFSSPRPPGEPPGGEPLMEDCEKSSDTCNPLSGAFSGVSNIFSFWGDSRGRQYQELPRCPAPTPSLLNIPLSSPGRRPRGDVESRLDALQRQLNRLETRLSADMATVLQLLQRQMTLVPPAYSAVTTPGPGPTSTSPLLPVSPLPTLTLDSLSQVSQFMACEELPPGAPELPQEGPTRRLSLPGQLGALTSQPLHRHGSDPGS
Method: The in vitro effect of the compounds of Formula I.a and I.b on ionic currents in voltage-clamped human embryonic kidney cells (HEK293) that stably express the human ether-à-go-go-related gene (hERG) was examined. Two concentrations of the compounds of Formula I.a and I.b (1 and 10 μM) were tested at near physiological temperature.
Cells were transferred to the recording chamber and superfused with vehicle control solution (HEPES-buffered physiological saline solution+1% dimethylsulfoxide+1% Bovine serum albumin). Micropipette solution for whole cell patch clamp recordings was composed of: potassium aspartate, 130 mM; MgCl2, 5 mM; EGTA, 5 mM; ATP, 4 mM; HEPES, 10 mM; pH adjusted to 7.2 with 10N KOH. Micropipette solution was prepared in batches, aliquoted, stored frozen and a fresh aliquot thawed each day. The recording was performed at a temperature of 33 to 35° C. using a combination of in-line solution pre-heater, chamber heater and feedback temperature controller. Temperature was measured using a thermistor probe in the recording chamber. Micropipettes for patch clamp recording were made from glass capillary tubing using a P-97 micropipette puller (Sutter Instruments, Novato, Calif.). A commercial patch clamp amplifier was used for whole cell recordings. Before digitization, current records were low-pass filtered at one-fifth of the sampling frequency.
Cells stably expressing hERG were held at −80 mV. Onset and steady state inhibition of hERG potassium current due to the test compounds (Formula I.a and I.b) were measured using a pulse pattern with fixed amplitudes (conditioning prepulse +20 mV for 1 s; repolarizing test ramp to −80 mV (−0.5 V/s) repeated at 5 s intervals). […] was subtracted off-line digitally from the data to determine the potency of the test compounds for hERG inhibition.

[3] = QT, QTc intervals and heart rate in conscious telemetered beagle dogs; type: in vivo; settings: for Emesis: beagle dogs
Method: Compound of Formula I.a was administered via peroral (p.o.) route at three dose levels: 5, 15, and 30 mg/kg in conscious telemetered male and female beagle dogs.
(§1) Measurements of ECG parameters (QT interval, QTcb interval, QTcf interval) and heart rate were carried out and recorded over a period of 2 hour prior to drug administration (baseline), and continuously up to 24 hour post-administration. Each animal received both vehicle (placebo) and three different doses of the compound of Formula I.a on different days in a Latin square design, with a washout period of a minimum of 96 hr. On a separate day, one additional oral dosing of compound of Formula I.a was performed to assess plasma concentrations of the compound of Formula I.a at different time points, to derive pharmacokinetic (PK) parameters.
Data of ECG parameters (QT interval, QTcb interval, QTcf interval,) and heart rate were statistically compared as follows: Data of the placebo group at 0.5, 1, 1.5, 2, 3, 4, 5, 6, 8, 12, and 24 hour time points were compared with baseline data of the same group. Data of different groups treated with the compound of Formula I.a were compared with the corresponding data of the placebo group.

[4] = Plasma pharmacokinetics in beagle dogs; type: in vivo; settings: dog, oral
Method: as §1

Abl (human) = Abl (human) (Homo sapiens, UniProt P00519); experiment: Abl kinase inhibition; type: biochemical; settings: read-out: Comparative potencies of tyrosine kinase inhibitors in c-Abl IC50
Abl (human), sequence (P00519 whole entry): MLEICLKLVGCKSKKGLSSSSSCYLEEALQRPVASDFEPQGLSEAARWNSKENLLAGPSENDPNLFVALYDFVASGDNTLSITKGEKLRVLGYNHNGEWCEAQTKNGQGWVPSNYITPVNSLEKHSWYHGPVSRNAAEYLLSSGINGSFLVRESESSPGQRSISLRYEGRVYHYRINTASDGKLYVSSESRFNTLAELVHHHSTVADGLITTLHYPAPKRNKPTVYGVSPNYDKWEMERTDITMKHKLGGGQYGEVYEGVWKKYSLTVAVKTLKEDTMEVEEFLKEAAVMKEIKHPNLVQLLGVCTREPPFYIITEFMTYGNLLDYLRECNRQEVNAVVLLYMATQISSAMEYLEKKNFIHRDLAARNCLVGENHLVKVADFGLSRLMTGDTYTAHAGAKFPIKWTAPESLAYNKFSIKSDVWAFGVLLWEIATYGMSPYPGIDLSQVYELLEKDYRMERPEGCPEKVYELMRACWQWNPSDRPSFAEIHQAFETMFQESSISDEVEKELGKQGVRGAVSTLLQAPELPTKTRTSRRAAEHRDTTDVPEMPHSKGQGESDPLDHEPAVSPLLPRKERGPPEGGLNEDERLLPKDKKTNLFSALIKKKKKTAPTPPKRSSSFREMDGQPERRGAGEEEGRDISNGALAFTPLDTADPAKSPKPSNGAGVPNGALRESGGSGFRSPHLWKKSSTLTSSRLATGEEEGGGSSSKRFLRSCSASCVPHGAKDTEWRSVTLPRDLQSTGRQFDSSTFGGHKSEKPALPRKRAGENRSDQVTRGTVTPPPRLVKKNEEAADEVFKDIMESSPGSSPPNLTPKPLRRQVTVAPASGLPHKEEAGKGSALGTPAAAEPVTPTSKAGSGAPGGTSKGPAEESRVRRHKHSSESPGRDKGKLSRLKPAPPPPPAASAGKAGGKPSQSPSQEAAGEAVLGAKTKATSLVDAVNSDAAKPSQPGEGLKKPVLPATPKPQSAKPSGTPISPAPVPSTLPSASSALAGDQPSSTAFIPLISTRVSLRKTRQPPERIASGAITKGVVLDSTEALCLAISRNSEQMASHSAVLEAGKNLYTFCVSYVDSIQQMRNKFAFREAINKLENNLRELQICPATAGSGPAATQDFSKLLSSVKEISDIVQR
Method: [specific activity approx. 500 cpm/pmol, concentration as required). The reaction is initiated by the addition of the MgATP mix. After incubation for 40 minutes at room temperature, the reaction is stopped by the addition of 5 μL of a 3% phosphoric acid solution. 10 μL of the reaction is then spotted onto a P30 filtermat and washed three times for 5 minutes in 75 mM phosphoric acid and once in methanol prior to drying and scintillation counting.

[5] = QT, QTc intervals and heart rate in anesthetized guinea pig; type: in vivo, Dunkin-Hartley guinea pigs; settings: 1 mg/kg intravenous infusion over 10 min
Method: Male Dunkin-Hartley guinea pigs of body weight range 300-400 g were anaesthetized by intraperitoneal injection of urethane (1.5 g/kg). A tracheotomy was performed and animal was allowed to breath spontaneously throughout the experiment. The left jugular vein was catheterized using polyethylene catheter filled with heparinized saline solution (100 IU/mL) for drug administration. Electrodes were placed in lead II position and baseline ECG was recorded.
For different animals, according to body weight, doses of the compound of Formula I.b were weighed and prepared in 0.5 mL of DMSO and administered via a slow intravenous infusion administered over a period of 10 min. ECGs were recorded during and after completion of infusion up to 0.5 hr. QT and RR intervals were measured, using PowerLab 4SP® software. The data were analyzed at 1, 5, and 10 min during infusion and 5, 10, 15 and 30 min after infusion taking mean of 9 beats.

[6] = human, HEK293 cells stably expressing hERG, 33 to 35° C., n=3, read-out: Mean percent inhibition of hERG current

With `Cc1ccc(C(=O)NNC(=O)c2c(C)cccc2Cl)cc1C#Cc1cnc2ccccc2c1` [Compound I.a, N′-(2-Chloro-6-methylbenzoyl)-4-methyl-3-[2-(3-quinolyl)ethynyl]-benzohydrazide] the “Brain to plasma ratio as compared to nilotinib or dasatinib” value ([1]; oral 30 mg/kg) was “significantly higher”, the “Prevention of neurodegeneration induced by MPTP (TH-positive neurons, percentage area, integrated density)” value [2] was “significantly prevented the neurodegeneration induced by MPTP” and the “Inhibition of hERG current (in words)” value (hERG K+ channel) was “did not show any significant inhibition of hERG current”. The inhibition at 1 µM (hERG K+ channel; [6]) was 2.1 ± 0.4%, the inhibition at 10 µM (hERG K+ channel; human, HEK293 cells stably expressing hERG, 10 μM, 33 to 35° C., n=3, read-out: Mean percent inhibition of hERG current) was 9.7 ± 0.4% and the Emesis ([3]; p.o., 30 mg/kg, at 14 min following dosing) was “Emesis occurred in two animals”. For the same molecule, the Emesis ([3]; p.o., 5 and 15 mg/kg) was “No emesis was observed”, the “Change in ECG morphology” value ([3]; conscious beagle dogs, any dose level) was “no change in ECG morphology” and the Heart rate ([3]; conscious beagle dogs, p.o., 5 and 15 mg/kg) was “remained unchanged”. For the same molecule, the “Effect on QT, QTcb, QTcf durations compared with placebo” value ([3]; conscious beagle dogs, p.o., 5 and 15 mg/kg, up to 24 hour) was “no effects”, the “Effect on cardiovascular functions” value ([3]; conscious beagle dogs, single oral administration up to 15 mg/kg) was “no effect on cardiovascular functions” and the AUC(0-inf) ([4]; 5 mg/kg) was 1920 to 4820 ng·h/mL. For the same molecule, the Cmax ([4]; 5 mg/kg) was 1220 to 2030 ng/mL, the AUC(0-inf) ([4]; 15 mg/kg) was 6780 to 12800 ng·h/mL and the Cmax ([4]; 15 mg/kg) was 2720 to 5320 ng/mL. The AUC(0-inf) ([4]; 30 mg/kg) was 25900 to 46700 ng·h/mL and the Cmax ([4]; 30 mg/kg) was 9820 to 9970 ng/mL.

For `Cc1ccc(C(=O)NNC(=O)c2c(C)cccc2Cl)cc1C#Cc1ccc(NC(=O)C2CC2)nc1` [Compound I.b, Cyclopropanecarboxylic acid (5-{5-[N′-(2-chloro-6-methylbenzoyl)hydrazinecarbonyl]-2-methyl-phenylethynyl}-pyridin-2-yl)amide], the IC50 (Abl (human)) was 0.6 nM, the “Prevention of neurodegeneration induced by MPTP (TH-positive neurons, percentage area, integrated density)” value [2] was “significantly prevented the neurodegeneration induced by MPTP” and the “Inhibition of hERG current (in words)” value (hERG K+ channel) was “did not show any significant inhibition of hERG current”. For the same molecule, the inhibition at 0.3 µM (hERG K+ channel; human, HEK293 cells stably expressing hERG, 0.3 μM, 33 to 35° C., n=3, read-out: Mean percent inhibition of hERG current) was 5.6%, the inhibition at 1 µM (hERG K+ channel; [6]) was 12.9% and the inhibition at 3 µM (hERG K+ channel; human, HEK293 cells stably expressing hERG, 3 μM, 33 to 35° C., n=3, read-out: Mean percent inhibition of hERG current) was 25%. For the same molecule, the “Change in QT intervals” value [5] was “no change in QT intervals”.

For `Cc1nc(Nc2ncc(C(=O)Nc3c(C)cccc3Cl)s2)cc(N2CCN(CCO)CC2)n1` [Dasatinib, dasatinib, reference compound], the Plasma conc. ([1]; oral, I.a 30 mg/kg, nilotinib 100 mg/kg, dasatinib 30 mg/kg, 8 hr) was “BQL”.
